Paper doi:10.1101/2021.04.08.439011v1 (biorxiv, 2021)
Read-outs that look alike come from different tables or passages of the source.

What was measured:
ABL1(H396P) = ABL1(H396P) (Homo sapiens, UniProt P00519, H396P); conditions: 1 µM, binder
MST4 = MST4 (Homo sapiens, UniProt Q9P289); conditions: 1 µM; binder
FLT3(N841I) = FLT3(N841I) (Homo sapiens, UniProt P36888, N841I); conditions: 1 µM; binder
PDGFRA = PDGFRA (Homo sapiens, UniProt P16234); conditions: 1 µM; binder
TNK1 = TNK1 (Homo sapiens, UniProt Q13470); conditions: 1 µM; binder
FGFR4 = FGFR4 (Homo sapiens, UniProt P22455); conditions: 1 µM; binder
WNK1 = WNK1 (Homo sapiens, UniProt Q9H4A3); conditions: 1 µM; binder
TYRO3 = TYRO3 (Homo sapiens, UniProt Q06418); conditions: 1 µM; binder
PYK2 = PYK2 (Homo sapiens, UniProt Q14289); conditions: 1 µM; binder
AURKB = AURKB (Homo sapiens, UniProt Q96GD4); conditions: 1 µM; binder
MAP4K2 = MAP4K2 (Homo sapiens, UniProt Q12851); conditions: 1 µM; binder
IKK-beta = IKK-beta (Homo sapiens, UniProt O14920); conditions: 1 µM; binder
PIK4CB = PIK4CB (Homo sapiens, UniProt Q9UBF8); conditions: 1 µM; binder
CDC42BPG = CDC42BPG (Homo sapiens, UniProt Q6DT37); conditions: 1 µM; binder
INSR = INSR (Homo sapiens, UniProt P06213); conditions: 1 µM; binder
FLT3(ITD,D835V) = FLT3(ITD,D835V) (Homo sapiens, UniProt P36888, D835V/ITD); conditions: 1 µM; binder
FRK = FRK (Homo sapiens, UniProt P42685); conditions: 1 µM; binder
TAOK3 = TAOK3 (Homo sapiens, UniProt Q9H2K8); conditions: 1 µM; binder
TYK2 = TYK2 (Homo sapiens, UniProt P29597); conditions: binder
LRRK2(G2019S) = LRRK2(G2019S) (Homo sapiens, UniProt Q5S007, G2019S); conditions: 1 µM; binder
CSK = CSK (Homo sapiens, UniProt P41240); conditions: 1 µM; binder
PHKG1 = PHKG1 (Homo sapiens, UniProt Q16816); conditions: 1 µM; binder
FAK = FAK (Homo sapiens, UniProt Q05397); conditions: 1 µM; binder
MYO3B = MYO3B (Homo sapiens, UniProt Q8WXR4); conditions: 1 µM; binder
CSF1R = CSF1R (Homo sapiens, UniProt P07333); conditions: 1 µM; binder
AMPK-alpha2 = AMPK-alpha2 (Homo sapiens, UniProt P54646); conditions: 1 µM; binder
ACVR2A = ACVR2A (Homo sapiens, UniProt P27037); conditions: 1 µM; binder
MRCKA = MRCKA (Homo sapiens, UniProt Q5VT25); conditions: 1 µM; binder
MLK2 = MLK2 (Homo sapiens, UniProt Q02779); conditions: 1 µM; binder
MATK = MATK (Homo sapiens, UniProt P42679); conditions: 1 µM; binder
MATK, sequence (P42679 whole entry): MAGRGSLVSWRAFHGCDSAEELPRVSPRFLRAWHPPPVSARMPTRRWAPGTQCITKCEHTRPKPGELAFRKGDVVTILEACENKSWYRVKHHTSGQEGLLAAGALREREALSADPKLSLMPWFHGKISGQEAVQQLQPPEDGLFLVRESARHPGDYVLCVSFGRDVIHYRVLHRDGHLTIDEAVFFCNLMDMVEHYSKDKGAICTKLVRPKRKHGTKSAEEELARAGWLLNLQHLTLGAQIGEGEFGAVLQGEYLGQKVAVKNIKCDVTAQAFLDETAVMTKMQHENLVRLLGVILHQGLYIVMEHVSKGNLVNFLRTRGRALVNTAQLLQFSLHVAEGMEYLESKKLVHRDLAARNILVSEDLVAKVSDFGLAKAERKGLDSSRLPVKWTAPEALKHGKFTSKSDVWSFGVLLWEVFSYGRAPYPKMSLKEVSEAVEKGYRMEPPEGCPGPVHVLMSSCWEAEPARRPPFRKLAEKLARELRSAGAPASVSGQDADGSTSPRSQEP

TYK2, sequence (P29597 whole entry): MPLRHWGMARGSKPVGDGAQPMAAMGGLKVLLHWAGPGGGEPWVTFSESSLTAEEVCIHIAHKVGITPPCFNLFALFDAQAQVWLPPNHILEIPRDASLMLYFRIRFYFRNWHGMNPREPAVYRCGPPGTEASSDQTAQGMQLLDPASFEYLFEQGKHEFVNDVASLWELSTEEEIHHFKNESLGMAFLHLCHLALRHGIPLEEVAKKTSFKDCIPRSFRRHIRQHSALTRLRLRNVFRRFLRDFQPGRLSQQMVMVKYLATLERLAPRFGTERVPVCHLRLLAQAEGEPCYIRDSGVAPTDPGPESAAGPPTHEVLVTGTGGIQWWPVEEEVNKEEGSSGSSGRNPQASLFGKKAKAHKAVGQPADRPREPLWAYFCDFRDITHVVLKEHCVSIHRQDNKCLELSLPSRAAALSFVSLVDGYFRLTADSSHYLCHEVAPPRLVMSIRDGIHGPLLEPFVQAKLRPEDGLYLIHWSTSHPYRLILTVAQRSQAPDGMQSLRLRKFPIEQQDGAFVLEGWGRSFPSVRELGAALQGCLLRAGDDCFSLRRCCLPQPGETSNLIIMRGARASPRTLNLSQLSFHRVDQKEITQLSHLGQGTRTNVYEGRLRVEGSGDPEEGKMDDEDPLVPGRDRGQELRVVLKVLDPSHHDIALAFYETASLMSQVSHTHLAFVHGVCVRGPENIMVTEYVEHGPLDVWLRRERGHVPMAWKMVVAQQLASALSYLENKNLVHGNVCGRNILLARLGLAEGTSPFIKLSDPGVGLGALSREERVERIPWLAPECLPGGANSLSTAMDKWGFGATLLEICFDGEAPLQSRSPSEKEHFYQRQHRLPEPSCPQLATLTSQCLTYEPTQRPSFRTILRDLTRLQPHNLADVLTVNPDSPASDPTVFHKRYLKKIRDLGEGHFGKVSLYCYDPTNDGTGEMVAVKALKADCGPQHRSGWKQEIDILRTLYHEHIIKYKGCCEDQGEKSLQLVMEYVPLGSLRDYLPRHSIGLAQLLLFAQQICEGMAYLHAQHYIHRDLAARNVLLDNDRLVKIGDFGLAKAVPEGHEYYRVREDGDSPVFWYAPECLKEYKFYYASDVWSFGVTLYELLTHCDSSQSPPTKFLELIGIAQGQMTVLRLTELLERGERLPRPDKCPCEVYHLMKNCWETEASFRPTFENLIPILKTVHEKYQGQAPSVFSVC
MST4, sequence (Q9P289 whole entry): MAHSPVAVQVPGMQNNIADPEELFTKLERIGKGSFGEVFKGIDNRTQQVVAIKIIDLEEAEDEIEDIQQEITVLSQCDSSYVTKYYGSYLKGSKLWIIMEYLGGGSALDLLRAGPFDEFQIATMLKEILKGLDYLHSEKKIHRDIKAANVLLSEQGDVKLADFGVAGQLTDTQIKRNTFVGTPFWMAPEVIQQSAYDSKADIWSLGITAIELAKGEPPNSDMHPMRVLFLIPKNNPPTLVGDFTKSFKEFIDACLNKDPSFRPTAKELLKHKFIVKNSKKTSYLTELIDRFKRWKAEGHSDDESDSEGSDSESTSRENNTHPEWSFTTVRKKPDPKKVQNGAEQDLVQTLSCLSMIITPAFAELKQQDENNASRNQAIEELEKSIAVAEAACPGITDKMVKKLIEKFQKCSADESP
FRK, sequence (P42685 whole entry): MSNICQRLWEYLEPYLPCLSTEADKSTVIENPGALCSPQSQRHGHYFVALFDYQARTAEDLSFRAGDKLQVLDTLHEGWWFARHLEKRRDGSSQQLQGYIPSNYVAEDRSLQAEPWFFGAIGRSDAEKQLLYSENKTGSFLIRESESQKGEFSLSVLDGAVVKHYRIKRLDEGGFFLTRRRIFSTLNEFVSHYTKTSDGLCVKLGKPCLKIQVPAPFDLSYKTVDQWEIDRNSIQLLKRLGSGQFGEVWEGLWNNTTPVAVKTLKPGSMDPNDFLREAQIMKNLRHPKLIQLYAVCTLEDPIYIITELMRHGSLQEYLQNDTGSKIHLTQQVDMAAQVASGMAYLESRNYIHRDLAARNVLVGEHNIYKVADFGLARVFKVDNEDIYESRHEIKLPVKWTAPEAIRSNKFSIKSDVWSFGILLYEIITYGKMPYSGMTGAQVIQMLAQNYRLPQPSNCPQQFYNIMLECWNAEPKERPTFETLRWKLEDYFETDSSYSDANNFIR
FAK, sequence (Q05397 whole entry): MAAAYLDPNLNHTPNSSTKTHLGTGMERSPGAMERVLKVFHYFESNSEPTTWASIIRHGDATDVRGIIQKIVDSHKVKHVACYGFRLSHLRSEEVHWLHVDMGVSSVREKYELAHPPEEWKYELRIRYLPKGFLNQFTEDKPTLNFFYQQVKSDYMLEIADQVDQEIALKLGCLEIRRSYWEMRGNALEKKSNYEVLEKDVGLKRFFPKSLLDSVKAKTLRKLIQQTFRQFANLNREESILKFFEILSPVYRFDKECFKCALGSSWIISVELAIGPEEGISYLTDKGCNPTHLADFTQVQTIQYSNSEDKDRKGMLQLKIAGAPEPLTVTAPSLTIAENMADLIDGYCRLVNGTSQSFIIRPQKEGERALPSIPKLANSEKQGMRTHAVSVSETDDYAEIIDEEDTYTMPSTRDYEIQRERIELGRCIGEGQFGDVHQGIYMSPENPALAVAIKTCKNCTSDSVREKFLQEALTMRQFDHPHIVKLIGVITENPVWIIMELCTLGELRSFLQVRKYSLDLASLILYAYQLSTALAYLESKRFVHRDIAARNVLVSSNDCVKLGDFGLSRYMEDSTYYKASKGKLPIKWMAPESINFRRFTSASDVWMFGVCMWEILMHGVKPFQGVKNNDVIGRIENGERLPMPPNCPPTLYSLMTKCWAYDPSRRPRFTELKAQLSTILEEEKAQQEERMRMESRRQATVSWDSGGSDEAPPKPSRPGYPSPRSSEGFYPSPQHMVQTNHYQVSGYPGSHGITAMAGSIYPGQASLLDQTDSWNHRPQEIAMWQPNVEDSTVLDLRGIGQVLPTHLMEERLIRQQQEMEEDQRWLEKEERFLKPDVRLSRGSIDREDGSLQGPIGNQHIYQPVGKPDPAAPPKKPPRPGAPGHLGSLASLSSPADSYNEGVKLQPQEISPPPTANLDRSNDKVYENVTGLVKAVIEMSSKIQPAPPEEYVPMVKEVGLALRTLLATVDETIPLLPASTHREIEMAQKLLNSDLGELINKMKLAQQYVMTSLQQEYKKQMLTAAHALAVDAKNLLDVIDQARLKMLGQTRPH
CSF1R, sequence (P07333 whole entry): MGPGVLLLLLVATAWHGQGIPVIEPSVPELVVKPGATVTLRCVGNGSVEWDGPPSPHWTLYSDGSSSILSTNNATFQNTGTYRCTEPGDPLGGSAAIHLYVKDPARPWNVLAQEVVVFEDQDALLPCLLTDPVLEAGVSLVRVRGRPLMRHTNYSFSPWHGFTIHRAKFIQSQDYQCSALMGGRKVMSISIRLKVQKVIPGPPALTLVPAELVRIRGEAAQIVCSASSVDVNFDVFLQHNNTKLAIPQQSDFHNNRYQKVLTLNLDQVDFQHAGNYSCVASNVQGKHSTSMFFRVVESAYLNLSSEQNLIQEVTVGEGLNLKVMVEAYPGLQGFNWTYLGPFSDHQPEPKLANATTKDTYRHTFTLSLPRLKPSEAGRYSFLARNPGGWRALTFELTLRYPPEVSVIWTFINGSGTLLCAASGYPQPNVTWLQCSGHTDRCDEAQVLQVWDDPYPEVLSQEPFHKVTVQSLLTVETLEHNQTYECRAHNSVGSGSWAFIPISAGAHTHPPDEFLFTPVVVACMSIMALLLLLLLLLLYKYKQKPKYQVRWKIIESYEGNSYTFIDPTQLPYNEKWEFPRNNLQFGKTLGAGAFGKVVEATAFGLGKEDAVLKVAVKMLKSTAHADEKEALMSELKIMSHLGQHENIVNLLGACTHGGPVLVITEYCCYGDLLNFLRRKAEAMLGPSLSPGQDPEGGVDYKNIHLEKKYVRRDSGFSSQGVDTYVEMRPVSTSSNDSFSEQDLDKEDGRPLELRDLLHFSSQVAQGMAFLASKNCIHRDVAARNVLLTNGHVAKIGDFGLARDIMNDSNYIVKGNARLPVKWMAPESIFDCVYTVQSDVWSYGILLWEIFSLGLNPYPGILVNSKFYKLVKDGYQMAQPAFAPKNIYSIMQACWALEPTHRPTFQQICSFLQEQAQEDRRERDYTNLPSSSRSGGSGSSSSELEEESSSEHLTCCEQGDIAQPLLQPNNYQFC
PHKG1, sequence (Q16816 whole entry): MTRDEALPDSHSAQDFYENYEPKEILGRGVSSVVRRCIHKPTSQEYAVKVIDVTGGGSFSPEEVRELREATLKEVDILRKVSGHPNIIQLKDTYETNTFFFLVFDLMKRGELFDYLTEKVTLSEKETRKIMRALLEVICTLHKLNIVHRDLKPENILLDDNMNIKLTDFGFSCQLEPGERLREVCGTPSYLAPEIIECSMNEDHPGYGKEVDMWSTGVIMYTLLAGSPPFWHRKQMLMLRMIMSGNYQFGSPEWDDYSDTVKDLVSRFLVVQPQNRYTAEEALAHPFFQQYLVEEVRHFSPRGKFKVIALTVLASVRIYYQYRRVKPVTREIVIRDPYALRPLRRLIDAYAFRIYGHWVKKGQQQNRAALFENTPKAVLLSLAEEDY

## CNc1ncc2cc(-c3ccc(-c4cccc(C)n4)cc3Cl)c(=O)n(C[C@H]3OC[C@H](N)CO3)c2n1 [compound 6, G-5555]
ABL1(H396P); nonphosphorylated
  Percent Control: 56%
ABL1(H396P); phosphorylated
  Percent Control: 94%
MST4
  Percent Control: 0%
FLT3(N841I)
  Percent Control: 97%
PDGFRA
  Percent Control: 96%
TNK1
  Percent Control: 100%
FGFR4
  Percent Control: 100%
WNK1
  Percent Control: 69%
TYRO3
  Percent Control: 92%
PYK2
  Percent Control: 100%
AURKB
  Percent Control: 23%
MAP4K2
  Percent Control: 32%
IKK-beta
  Percent Control: 80%
PIK4CB
  Percent Control: 100%
CDC42BPG
  Percent Control: 15%
INSR
  Percent Control: 97%
FLT3(ITD,D835V)
  Percent Control: 74%
FRK
  Percent Control: 71%
TAOK3
  Percent Control: 100%
TYK2; JH1 domain catalytic
  Percent Control: 74%
TYK2; JH2 domain pseudokinase, 1 µM
  Percent Control: 98%
LRRK2(G2019S)
  Percent Control: 100%
CSK
  Percent Control: 85%
PHKG1
  Percent Control: 100%
FAK
  Percent Control: 100%
MYO3B
  Percent Control: 57%
CSF1R
  Percent Control: 92%
AMPK-alpha2
  Percent Control: 47%
ACVR2A
  Percent Control: 100%
MRCKA
  Percent Control: 70%
MLK2
  Percent Control: 88%
MATK
  Percent Control: 100%
